# Reference: patent US20050065114A1, “Therapeutical treatment with oligo-beta- (1,3) -glucans, drugs used in said treatment” (priority 2003, published 2005)
# “And” between values parts separate entries of the source, which are not always exact repeats. Equal entries are not always repeated.
# How the values were obtained:
# Type in all cases: in vivo, Balb/c mice
# [1] = test system: peripheral blood cells (monocytes, lymphocytes, granulocytes); assay: Differential count in blood; conditions: for % of granulocytes / % of lymphocytes / % of monocytes: peripheral blood 24 hrs after i.p. injection
# Method: (§1) Using the same experimental groups as described above in Example 3, two extra microscopic slides from each experimental sample were prepared. After Accustain (modified Wright stain, Sigma) staining, the slides were evaluated using the optical microscope for presence of individual types of cells, i.e. monocytes, lymphocytes and granulocytes.
# [2] = test system: cells from peripheral blood (monocytes, granulocytes); assay: Phagocytosis of HEMA particles by cells from peripheral blood after intraperitoneal injection; conditions: for % of phagocytosing granulocytes / % of phagocytosing monocytes: peripheral blood 24 hrs after i.p. injection
# Method: A group of Balb/c mice (Jackson laboratory, Bar Harbor, ME, USA) has been injected intraperitoneally with either PBS (Control; Sigma, St. Louis, Mo., USA), Laminaritetraose or Laminaripentaose. 24 hrs later, mice were sacrified, peripheral blood from the orbital plexus was collected into heparine (5 IU/ml) (Sigma).
# After counting, a test of phagocytosis of HEMA particles (synthetic microspheres prepared from 2-hydroxyethylmethacrylate copolymer) was performed as described in: Rembaum et al., 1976, Vetvicka et al. 1982, Bilej et al., 1989.
# 0.1 ml of heparinized fresh blood was added to 0.05 ml of diluted HEMA particles (5×10^8/ml) and incubated for 60 minutes at 37° C. with occasional gentle agitation.
# After the end of incubation, the cell suspension was smeared over microscope slides. Smears were evaluated under the optical microscope after Accustain (modified Wright stain, Sigma) staining.
# Cells with at least three engulfed particles were considered to be positive.
# TNF-alpha = assay: Cytokine level in peripheral blood: TNF-alpha in serum by OptEIA Mouse TNF-alpha ELISA; conditions: for TNF-alpha level (Table 6, same experiments as Table 5): 250 μg/mouse, unit not given in Table 6 (Table 5: pg/ml); for Relative activity on TNF-alpha level (in words): comparison between substances, Table 6, 24 and 48 h
# Method: Balb/c mice were intraperitoneally injected with 50 μg of Laminaritetraose, Laminaripentaose, Laminarin or Lentinan (purchased from NIH, Bethesda, Md., USA) in PBS.
# After various time intervals (30, 60 and 90 minutes, respectively), after the injection of Laminaritetraose, Laminaripentaose, Laminarin, Lentinan only, the mice were killed and blood was collected in Eppendorf tubes.
# Subsequently, the serum of the collected blood was separated, collected and stored at −80° C. for no more than 1 week.
# The level of TNF-alpha in the serum samples was evaluated using a commercial kit marketed as OptEIA Mouse TNF-alpha (Mono/Mono) Set by the Company Pharmingen, San Diego, Calif., USA); the manufacturer's instructions were followed.
# In connection with the experiments carried out by Applicants, Balb/c mice were intraperitoneally injected with various doses (50, 100, and 250 μg) of Soluble laminarin and Lentinan (from NIH, Bethesda, Md., USA) in PBS.
# Control mice were treated with PBS only. […]
# Subsequently, the serum was prepared, collected and stored at −80° C. for no more than 1 week.
# The level of TNF-alpha in serum samples was evaluated using a commercial kit marketed as OptEIA Mouse TNF-alpha (Mono/Mono) Set by the Company Pharmingen, San Diego, Calif., USA); the manufacturer's instructions were followed.
# In that respect, The wells of 96-well plates were coated with 0.1 ml/well of capture antibody (provided in the above kit) diluted in coating buffer (also provided in the above kit); the expression “capture antibody” designates first antibody used for coating of wells; this antibody captures the tested cytokines from the solution; in this assay it was anti-mouse-TNF-alpha monoclonal antibody.
# The plates were sealed and incubated overnight at 4° C.
# Individual wells were emptied by aspiration and washed 3 times with over 300 el/well of wash buffer (also provided in the kit).
# Reaction was blocked with 200 el/well of assay dilutant diluent (also provided in the kit) and by incubation for 60 minutes at room temperature.
# Again, individual wells were emptied by aspiration and washed 3 times with over 300 el/well of the same wash buffer.
# Standards (also provided in the kit) and samples of serum were diluted in assay diluent (also provided in the kit) and pipetted (100 μl/well) in appropriate wells; as far as the dissolution rate is concerned standards (part of the kit) were diluted according to the instructions into following concentrations: 1000 pg/ml, 500 pg/ml, 250, 125, 62.5, 31.3, and 15.6 pg/ml.
# The plates were sealed and incubated for 60 minutes at room temperature. Individual wells were aspirated and washed 3 times with over 300 μl/well of the same wash buffer. A quantity of 100 μl/well of a working detector (antibody-avidin-HRP conjugate also provided in the kit) was added into each well.
# The plates were sealed with plastic foils and incubated for 60 minutes at room temperature. Individual wells were emptied by aspiration and washed 3 times with over 300 μl/well of same wash buffer.
# A quantity of 100 μl/well of substrate solution (also provided in the kit) was added to each well and the plates were incubated for 30 minutes in the dark at room temperature; “substrate solution” is formed by mixing a substrate reagent A containing hydrogen peroxide and Substrate reagent B containing 3,3′,5,5′-tetramethylbenzidine in organic solvent; when mixed together, the reagent reacts with peroxidase-labeled conjugates to develop a blue color.
# A quantity of 50 μl/well of stop solution provided in the kit and adapted to stop the reaction was added to each well and the optical density was determined using a STL ELISA reader (marketed by Tecan U.S., Research Triangle Park, N.C.) at 450 nm with a correction at 570 nm.
# The concentration of TNF-alpha, in pg/ml, in the blood of the mice treated as hereabove disclosed has been determined at the following moments: 30, 60 and 90 minutes after the injection of Laminaritetraose, Laminaripentaose, Lentinan and control. […]
# peritoneal macrophages = assay: Phagocytosis of HEMA particles by cells from peritoneal cavity after intraperitoneal injection; conditions: for % of phagocytosing macrophages: peritoneal cells 24 hrs after i.p. injection
# Method: A group of Balb/c mice (Jackson laboratory, Bar Harbor, Me., USA) has been injected intraperitoneally with either PBS (control), Laminaritetraose or Laminaripentaose. 24 hrs later, mice were sacrificed, peritoneal cells were collected into Hanks medium (Sigma).
# After counting the cells in hemocytometer, the peritoneal cells were diluted to lxlO7 cells in RPMI 1640 medium (Sigma) with 5% fetal calf serum (Hyclone, Logan, Utah, USA).
# 2×10^6 cells in 0.2 ml of RPMI 1640 medium supplemented with 5% fetal calf serum were mixed with the same volume of HEMA particles (5×10^8/ml).
# The suspension was incubated for 60 minutes at 37° C. with occasional agitation. Incubation was terminated by centrifugation (150 g for 5 minutes) and the pellet was resuspended.
# Macrophages with ingested particles were scored under the optical microscope in smears after Accustain (modified Wright stain, Sigma) staining.
# Cells with six or more engulfed particles were considered to be positive.
# [3] = test system: peritoneal cells (macrophages, lymphocytes, mast cells); assay: Differential count in peritoneal cells; conditions: for % of lymphocytes / % of macrophages / % of mast cells: peritoneal cells 24 hrs after i.p. injection
# Method: as §1, with “4,” for “3,”, “macrophages,” for “monocytes,”, “mast cells.” for “granulocytes.”
# [4] = individual values, cells with at least three engulfed HEMA particles positive
# [5] = mean, at least three engulfed HEMA particles
molecule,measurement,setting,value
"OC[C@H]1O[C@@H](O[C@@H]2[C@@H](O)[C@H](O[C@@H]3[C@@H](O)[C@H](O[C@@H]4[C@@H](O)[C@H](O[C@@H]5[C@@H](O)[C@H](O)O[C@H](CO)[C@H]5O)O[C@H](CO)[C@H]4O)O[C@H](CO)[C@H]3O)O[C@H](CO)[C@H]2O)[C@H](O)[C@@H](O)[C@@H]1O [Laminaripentaose, β-D-glucopyranosyl-(1→3)-β-D-glucopyranosyl-(1→3)-β-D-glucopyranosyl-(1→3)-β-D-glucopyranosyl-(1→3)-β-D-glucopyranose]",% of granulocytes,[1]; individual values,33.8% and 35.9% and 36.9%
same,% of lymphocytes,[1]; individual values,57.1% and 54.1% and 53.3%
same,% of monocytes,[1]; individual values,9.1% and 1.0% and 9.8%
same,% of granulocytes,[1]; mean,35.5%
same,% of lymphocytes,[1]; mean,54.8%
same,% of monocytes,[1]; mean,9.4%
same,Effect on number of granulocytes in the peripheral blood (in words),[1]; versus PBS control,increase the number of granulocytes
same,% of phagocytosing granulocytes,[2]; [4],40.8% and 42.5% and 46.4%
same,% of phagocytosing monocytes,[2]; [4],41.6% and 43.1% and 49.6%
same,% of phagocytosing granulocytes,[2]; [5],43.2%
same,% of phagocytosing monocytes,[2]; [5],44.8%
same,Effect on phagocytosis in monocytes and granulocytes (in words),"[2]; peripheral blood, versus PBS control",strongly stimulate phagocytosis
same,Concentration of TNF alpha in blood of treated mice,"TNF-alpha; 50 μg/mouse i.p., 30 min",34.3 pg/mL
same,Concentration of TNF alpha in blood of treated mice,"TNF-alpha; 50 μg/mouse i.p., 60 min",37.0 pg/mL
same,Concentration of TNF alpha in blood of treated mice,"TNF-alpha; 50 μg/mouse i.p., 90 min",71.3 pg/mL
same,Concentration of TNF alpha in blood of treated mice,"TNF-alpha; 100 μg/mouse i.p., 30 min",53.0 pg/mL
same,Concentration of TNF alpha in blood of treated mice,"TNF-alpha; 100 μg/mouse i.p., 60 min",46.5 pg/mL
same,Concentration of TNF alpha in blood of treated mice,"TNF-alpha; 100 μg/mouse i.p., 90 min",93.2 pg/mL
same,Concentration of TNF alpha in blood of treated mice,"TNF-alpha; 250 μg/mouse i.p., 30 min",42.1 pg/mL
same,Concentration of TNF alpha in blood of treated mice,"TNF-alpha; 250 μg/mouse i.p., 60 min",36.4 pg/mL
same,Concentration of TNF alpha in blood of treated mice,"TNF-alpha; 250 μg/mouse i.p., 90 min",24.4 pg/mL
same,"TNF-alpha level (Table 6, same experiments as Table 5)",TNF-alpha; 24 hours,79.6 pg/mL
same,"TNF-alpha level (Table 6, same experiments as Table 5)",TNF-alpha; 48 hours,38.7 pg/mL
same,Relative activity on TNF-alpha level (in words),TNF-alpha,more active than Laminaritetraose
same,Relative activity on TNF-alpha level (in words),TNF-alpha; listed as laminaripentaose,more active than yest derived glucan (Lentinan)
same,Increase of TNF-alpha secretion compared with Lentinan (in words),"TNF-alpha; low doses, indirect activation of macrophages and cytotoxic T lymphocytes",significantly higher
same,% of phagocytosing macrophages,"peritoneal macrophages; individual values, cells with six or more engulfed HEMA particles positive",54.9% and 57.3% and 62.7%
same,% of phagocytosing macrophages,"peritoneal macrophages; mean, six or more engulfed HEMA particles",58.3%
same,Effect on phagocytosis of peritoneal macrophages (in words),"peritoneal macrophages; peritoneal cells, versus PBS control",strongly stimulate phagocytosis
same,% of lymphocytes,[3]; individual values,48.1% and 48.0% and 34.7%
same,% of macrophages,[3]; individual values,50.4% and 48.1% and 59.8%
same,% of mast cells,[3]; individual values,1.5% and 3.9% and 5.5%
same,% of lymphocytes,[3]; mean,43.4%
same,% of macrophages,[3]; mean,52.8%
same,% of mast cells,[3]; mean,3.6%
same,Effect on migration of macrophage into the peritoneal cavity (in words),[3]; versus PBS control,stimulate the migration of macrophage
Lentinan [reference compound],Concentration of TNF alpha in blood of treated mice,"TNF-alpha; 50 μg/mouse i.p., 30 min",20 pg/mL
same,Concentration of TNF alpha in blood of treated mice,"TNF-alpha; 50 μg/mouse i.p., 60 min",15.7 pg/mL
same,Concentration of TNF alpha in blood of treated mice,"TNF-alpha; 50 μg/mouse i.p., 90 min",32.0 pg/mL
same,Concentration of TNF alpha in blood of treated mice,"TNF-alpha; 100 μg/mouse i.p., 30 min",28 pg/mL
same,Concentration of TNF alpha in blood of treated mice,"TNF-alpha; 100 μg/mouse i.p., 60 min",30.7 pg/mL
same,Concentration of TNF alpha in blood of treated mice,"TNF-alpha; 100 μg/mouse i.p., 90 min",20.3 pg/mL
same,Concentration of TNF alpha in blood of treated mice,"TNF-alpha; 250 μg/mouse i.p., 30 min",86.3 pg/mL
same,Concentration of TNF alpha in blood of treated mice,"TNF-alpha; 250 μg/mouse i.p., 60 min",68.7 pg/mL
same,Concentration of TNF alpha in blood of treated mice,"TNF-alpha; 250 μg/mouse i.p., 90 min",48.6 pg/mL
